Experimental data taken from patent publication US4925852A, “3-demethylmevalonic acid derivatives, and pharmaceutical products based on these compounds” (Hoechst Aktiengesellschaft, priority 1987, dated 1990).
Counter-ions that a name gives are not always drawn.

target: T1, HMG-CoA reductase (Rattus norvegicus, UniProt P51639); experiment: HMG-CoA reductase activity in solubilized enzyme preparations from rat liver microsomes (14C-HMG-CoA); assay type: biochemical; conditions: Table 1; solubilized rat liver microsomal enzyme; mean of 3 parallel samples; read-out: IC50 (molar concentration of the compound required for 50% inhibition of HMG-CoA reductase)
T1 construct: solubilized enzyme preparations from rat liver microsomes; from tissue; host or cells: rat liver microsomes (cholestyramine-induced), solubilized
T1 sequence (P51639 1-887): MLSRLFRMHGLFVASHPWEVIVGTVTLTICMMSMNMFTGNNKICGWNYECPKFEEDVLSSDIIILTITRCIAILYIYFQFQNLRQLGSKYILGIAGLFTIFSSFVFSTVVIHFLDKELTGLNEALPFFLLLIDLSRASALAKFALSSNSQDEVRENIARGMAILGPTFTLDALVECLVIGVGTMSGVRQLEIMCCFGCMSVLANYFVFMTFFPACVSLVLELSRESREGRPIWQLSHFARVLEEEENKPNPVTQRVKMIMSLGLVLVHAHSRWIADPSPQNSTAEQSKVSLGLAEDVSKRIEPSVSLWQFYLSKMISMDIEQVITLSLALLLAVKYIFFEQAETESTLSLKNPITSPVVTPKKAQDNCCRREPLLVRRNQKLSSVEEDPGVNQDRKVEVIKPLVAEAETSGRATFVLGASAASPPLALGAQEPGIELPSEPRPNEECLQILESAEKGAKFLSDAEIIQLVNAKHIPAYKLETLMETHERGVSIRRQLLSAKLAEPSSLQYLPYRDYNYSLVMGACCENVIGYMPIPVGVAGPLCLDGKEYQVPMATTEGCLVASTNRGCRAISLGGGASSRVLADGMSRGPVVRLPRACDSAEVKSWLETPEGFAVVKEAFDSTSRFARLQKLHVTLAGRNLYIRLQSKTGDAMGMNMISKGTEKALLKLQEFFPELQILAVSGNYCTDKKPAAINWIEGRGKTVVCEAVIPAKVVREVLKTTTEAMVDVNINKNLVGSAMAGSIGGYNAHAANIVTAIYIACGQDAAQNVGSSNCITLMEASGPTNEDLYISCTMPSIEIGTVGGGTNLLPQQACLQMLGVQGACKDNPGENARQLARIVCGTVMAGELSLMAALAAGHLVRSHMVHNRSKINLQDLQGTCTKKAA
Procedure: The HMG-CoA reductase activity was measured on solubilized enzyme preparations from rat liver microsomes induced, after a changeover in the day/night rhythm, with cholestyramine (® CUEMID). The substrate used was (S,R)-^14 C-HMG-CoA, and the NADPH concentration was maintained during the incubation by a regenerating system. ^14 C-Mevalonate was separated from the substrate and other products (for example ^14 C-HMG) by column elution, the elution profile of each individual sample being determined. ^3 H-Mevalonate was not always included in the determination because relative data on the inhibitory effects were required. […] Each individual value was the mean formed from 3 parallel samples. The significance of the mean differences between product-free and product-containing samples was assessed using the t test.

Row | SMILES | IC50 [nM]
1 | CC(C)c1cc(-c2ccccc2)nc(-c2ccc(F)cc2)c1/C=C/[C@@H](O)C[C@@H](O)CC(=O)O [Example 13f] | 4
2 | Cc1cc(-c2ccc(F)cc2)c(/C=C/[C@@H](O)C[C@@H](O)CC(=O)O)c(C)n1 [Example 13a, (E)- and (Z)-(3R,5S)-3,5-Dihydroxy-7-(2,6-dimethyl-4-(4-fluorophenyl)pyridin-3-yl)-6-heptenoic acid potassium salts] | 260
3 | O=C(O)C[C@H](O)C[C@H](O)/C=C/c1c(-c2ccc(F)cc2)cc(-c2ccccc2)nc1C1CC1 [Example 13ac] | 1
4 | Cc1cc(-c2ccc(Cl)cc2)c(/C=C/[C@@H](O)C[C@@H](O)CC(=O)O)c(C)n1 [Example 13b] | 94
5 | Cc1cc(-c2ccc(F)cc2)c(/C=C/[C@@H](O)C[C@@H](O)CC(=O)O)c(C(C)C)n1 [Example 13d] | 9.1
6 | CC(C)c1nc(-c2ccccc2)cc(-c2ccc(F)cc2)c1/C=C/[C@@H](O)C[C@@H](O)CC(=O)O [Example 13e] | 2.9
7 | CC(C)(C)c1nc(-c2ccccc2)cc(-c2ccc(F)cc2)c1/C=C/[C@@H](O)C[C@@H](O)CC(=O)O [Example 13g] | 18
8 | Cc1ccc(C)c(-c2cc(-c3ccc(F)cc3)c(/C=C/[C@@H](O)C[C@@H](O)CC(=O)O)c(C(C)C)n2)c1 [Example 13i] | 5
9 | Cc1nc(-c2ccccc2)cc(-c2ccc(F)cc2)c1/C=C/[C@@H](O)C[C@@H](O)CC(=O)O [Example 13c] | 38
10 | CC(C)c1nc(-c2ccc(F)cc2)cc(-c2ccc(F)cc2)c1/C=C/[C@@H](O)C[C@@H](O)CC(=O)O [Example 13j] | 2.3
11 | CC(C)c1nc(-c2ccc(O)cc2)cc(-c2ccc(F)cc2)c1/C=C/[C@@H](O)C[C@@H](O)CC(=O)O [Example 13ab] | 1.5

Continued, values first:

Row | IC50 [nM] | SMILES
12 | 3 | CC(C)c1nc(-c2ccccc2)nc(-c2ccc(F)cc2)c1/C=C/[C@@H](O)C[C@@H](O)CC(=O)O [Example 13o]
13 | 1.2 | CC(C)c1nc(C(C)(C)C)cc(-c2ccc(F)cc2)c1/C=C/[C@@H](O)C[C@@H](O)CC(=O)O [Example 13r]
14 | 500 | Cc1nc(C)c(/C=C/[C@@H](O)C[C@@H](O)CC(=O)O)c(-c2ccc(F)cc2)n1 [Example 13k]
15 | 2.5 | CC(C)c1nc(-c2ccc(F)cc2)c(/C=C/[C@@H](O)C[C@@H](O)CC(=O)O)c(C(C)C)n1 [Example 13v]
16 | 600 | Cc1nc(C)c(/C=C/[C@@H](O)C[C@@H](O)CC(=O)O)c(-c2ccc(Cl)cc2)n1 [Example 13l]
17 | 2.5 | CC(C)c1cc(-c2ccc(F)cc2)c(/C=C/[C@@H](O)C[C@@H](O)CC(=O)O)c(C(C)C)n1 [Example 13q]
18 | 0.9 | CC(C)c1nc(-c2ccc(F)cc2)nc(-c2ccc(F)cc2)c1/C=C/[C@@H](O)C[C@@H](O)CC(=O)O [Example 13w]
19 | 3.7 | CC(C)c1nc(C2CCCCC2)cc(-c2ccc(F)cc2)c1/C=C/[C@@H](O)C[C@@H](O)CC(=O)O [Example 13s]

test system: cholesterol; experiment: not given; conditions: literature; cited from earlier work

Row | SMILES | cholesterol-lowering action in the rat
20 | CC(O)(CC(=O)O)CC(=O)O [3-Hydroxy-3-methylglutaric acid] | significant cholesterol-lowering action

test system: cholesterol; experiment: not given; conditions: literature; cited from earlier work; remark: another data set of the same source

Row | SMILES | cholesterol-lowering action in human experiments
21 | CC(O)(CC(=O)O)CC(=O)O [3-Hydroxy-3-methylglutaric acid] | significant cholesterol-lowering action

test system: 3-hydroxy-3-methylglutaryl-coenzyme A reductase (HMG-CoA reductase); experiment: not given; conditions: cited from earlier work

Row | SMILES | inhibition of HMG-CoA reductase (literature)
22 | CC[C@H](C)C(=O)O[C@H]1CCC=C2C=C[C@H](C)[C@H](CC[C@@H]3C[C@@H](O)CC(=O)O3)[C@H]21 [compactin] | inhibition

test system: HEP-G2 cells (cholesterol biosynthesis); experiment: Inhibition of cholesterol biosynthesis in cell cultures of HEP-G2 cells (14C-acetate into 14C-cholesterol); assay type: cell-based; conditions: Homo sapiens, HepG2, Table 2, preincubation for example 1 hour, 14C-acetate for example 3 hours, read-out: IC50 (concentration of the compound which brings about 50% inhibition of cholesterol biosynthesis)
Procedure: Monolayers of HEP-G2 cells in lipoprotein-free nutrient medium were preincubated with appropriate concentrations of the test substances for a defined time (for example 1 hour), the labeled precursor, for example sodium ^14 C-acetate was added and then the incubation was continued (for example for 3 hours). Addition of an internal standard (^3 H-cholesterol) was followed by alkaline hydrolysis of some of the cells. The lipids were extracted from the hydrolyzed cells using chloroform/methanol. Carrier cholesterol was added to this lipid mixture which was then subjected to preparative thin-layer chromatography, the cholesterol band was visualized with iodine vapor and then isolated, and the amount of ^14 C-cholesterol formed from the ^14 C-precursor was determined by scintigraphy. Cellular protein was determined in an aliquot of the cells, so that it is possible to calculate the amount of ^14 C-cholesterol formed per mg of cellular protein in unit time.
in nmol of ^14 C-cholesterol/mg of cell protein
in comparison with the solvent control.
Using the method described above, the following values for the inhibition of cholesterol biosynthesis (in HEP-G2 cells) were determined for the compounds according to the invention, for example (the IC50 /mol/liter is the concentration of the compound which brings about 50% inhibition of cholesterol biosynthesis) (Tab. 2): […]

Row | SMILES | IC50 [nM]
23 | CC(C)c1nc(-c2ccccc2)cc(-c2ccc(F)cc2)c1/C=C/[C@@H]1C[C@@H](O)CC(=O)O1 [Example 11e] | 5
24 | CC(C)c1nc(-c2ccccc2)nc(-c2ccc(F)cc2)c1/C=C/[C@@H]1C[C@@H](O)CC(=O)O1 [Example 11o] | 5
25 | Cc1nc(-c2ccccc2)cc(-c2ccc(F)cc2)c1/C=C/[C@@H]1C[C@@H](O)CC(=O)O1 [Example 11c] | 90
26 | Cc1cc(-c2ccc(F)cc2)c(/C=C/[C@@H]2C[C@@H](O)CC(=O)O2)c(C(C)C)n1 [Example 11d] | 50
